One test has as its system 380. As to the kind of experiment: selective drug sensitivity score (sDSS, relative to normal bone marrow) (sDSS (score)); higher = more potent and effective on the cell line relative to normal bone marrow cells. The settings on record: 72 h.
For the molecule `Nc1nc2cc(-c3ccc4ncc(C(=O)N5CCOCC5)n4c3)ccc2o1` [Serabelisib] (top concentration 10000 nM), the “selective drug sensitivity score” value was -0.44.
In the case of `COc1cccc(-c2ccc(NC(=O)C3=C(C(=O)O)CCC3)c(F)c2)c1` [Vidofludimus] (top concentration 10000 nM), the “selective drug sensitivity score” value stood at 5.
As to `Cc1cccc(-c2nn3c(c2-c2ccnc4ccc(C(N)=O)cc24)CCC3)n1` [Galunisertib] (top concentration 1000 nM), the “selective drug sensitivity score” value is 0.
Same read-out and setting: then `COc1cc2c(N3CCN(C(=O)Nc4ccc(OC(C)C)cc4)CC3)ncnc2cc1OCCCN1CCCCC1` [Tandutinib] (top concentration 1000 nM), with 0; and `Cc1c(F)cc(C(=O)NC2CC2)cc1-c1ccc(C(=O)NCC(C)(C)C)cn1` [Losmapimod] (top concentration 10000 nM), with -0.18; and `Nc1nc(N)c2nc(-c3cccc(O)c3)c(-c3cccc(O)c3)nc2n1` [TG100-115] (top concentration 10000 nM), with 2.1.
Consider `C[C@]12CC[C@@H]3c4ccc(O)cc4C[C@@H](CCCCCCCCC[S+]([O-])CCCC(F)(F)C(F)(F)F)[C@H]3[C@@H]1CC[C@@H]2O` (stereo not given in full) [Fulvestrant] (top concentration 1000 nM), for which the “selective drug sensitivity score” value amounted to 0.
With `O=C(Nc1cccnc1)N1CCC(Cc2cccc(Oc3ccc(C(F)(F)F)cn3)c2)CC1` [PF-3845] (top concentration 10000 nM), the “selective drug sensitivity score” value is -1.34.
As for `COc1cc2c(cc1OCCCN1CCCC1)N=C(N)C21CCC1` [A-366] (top concentration 25000 nM), the “selective drug sensitivity score” value is -1.84.
Same read-out and setting: then `Oc1ncnc2[nH]ncc12` [Allopurinol] (top concentration 10000 nM), with -0.64; and `CC(C)n1cnc2c(NCCc3ccc(O)cc3)nc(-c3csc4ccccc34)nc21` [StemRegenin_1] (top concentration 10000 nM), with -1.8; and `C#Cc1cccc(Nc2ncnc3cc4c(cc23)OCCOCCOCCO4)c1` [Icotinib] (top concentration 10000 nM), with 3.6.
Take `CN[C@@H](C)C(=O)N[C@H]1CN(C(=O)CC(C)C)CC[C@H]2CC[C@@H](C(=O)NC(c3ccccc3)c3ccccc3)N2C1=O` [AT-406] (top concentration 10000 nM): the “selective drug sensitivity score” value was -1.26.
As for `CC(C)(O)CC(=O)NCCn1ccc2ncnc(Nc3ccc(Oc4cccc(C(F)(F)F)c4)c(Cl)c3)c21` [TAK-285] (top concentration 2500 nM), the “selective drug sensitivity score” value came to 0.
Take `COc1cc(C)[nH]c(=O)c1CNC(=O)c1c(C)n([C@H](C)C2CCOCC2)c2ccccc12` [CPI-360] (top concentration 10000 nM): the “selective drug sensitivity score” value worked out at 5.1.
Regarding `Cc1cc2c(C(=O)NC[C@H](C)c3ccccc3)c(O)c(O)cc2c(O)c1-c1c(C)cc2c(C(=O)NC[C@H](C)c3ccccc3)c(O)c(O)cc2c1O` [Sabutoclax] (top concentration 25000 nM), the “selective drug sensitivity score” value is 14.1.
Still for that read-out and setting: next, `CC(C)(C)C[C@@H]1N[C@@H](C(=O)N[C@H]2CC[C@H](O)CC2)[C@H](c2cccc(Cl)c2F)[C@]12C(=O)Nc1cc(Cl)ccc12` (top concentration 10000 nM): 14.3; `C[C@@H]1C[C@H]2[C@@H]3CCC4=CC(=O)C=C[C@]4(C)[C@@]3(F)[C@@H](O)C[C@]2(C)[C@@]1(O)C(=O)CO` [Dexamethasone] (top concentration 10000 nM): 32.2.

A further test relates to ALL-PO. The description is as above. The settings on record: 72 h.
With `Nc1nc2cc(-c3ccc4ncc(C(=O)N5CCOCC5)n4c3)ccc2o1` [Serabelisib] (top concentration 10000 nM), the “selective drug sensitivity score” value was 4.96.
The same measure, in the same setting: then `COc1cccc(-c2ccc(NC(=O)C3=C(C(=O)O)CCC3)c(F)c2)c1` [Vidofludimus] (top concentration 10000 nM), with 2.6; and `Cc1cccc(-c2nn3c(c2-c2ccnc4ccc(C(N)=O)cc24)CCC3)n1` [Galunisertib] (top concentration 1000 nM), with 0.
The same measure, in the same setting: then `COc1cc2c(N3CCN(C(=O)Nc4ccc(OC(C)C)cc4)CC3)ncnc2cc1OCCCN1CCCCC1` [Tandutinib] (top concentration 1000 nM), with 3.1; and `Cc1c(F)cc(C(=O)NC2CC2)cc1-c1ccc(C(=O)NCC(C)(C)C)cn1` [Losmapimod] (top concentration 10000 nM), with -0.18.
Still for that read-out and setting: next, `Nc1nc(N)c2nc(-c3cccc(O)c3)c(-c3cccc(O)c3)nc2n1` [TG100-115] (top concentration 10000 nM): -0.2; `C[C@]12CC[C@@H]3c4ccc(O)cc4C[C@@H](CCCCCCCCC[S+]([O-])CCCC(F)(F)C(F)(F)F)[C@H]3[C@@H]1CC[C@@H]2O` (stereo not given in full) [Fulvestrant] (top concentration 1000 nM): 2.3; `O=C(Nc1cccnc1)N1CCC(Cc2cccc(Oc3ccc(C(F)(F)F)cn3)c2)CC1` [PF-3845] (top concentration 10000 nM): 2.36.
As to `COc1cc2c(cc1OCCCN1CCCC1)N=C(N)C21CCC1` [A-366] (top concentration 25000 nM), the “selective drug sensitivity score” value was determined as 1.76.
As for `Oc1ncnc2[nH]ncc12` [Allopurinol] (top concentration 10000 nM), the “selective drug sensitivity score” value is -0.64.
Still for that read-out and setting: then `CC(C)n1cnc2c(NCCc3ccc(O)cc3)nc(-c3csc4ccccc34)nc21` [StemRegenin_1] (top concentration 10000 nM), with 1.9.
As to `C#Cc1cccc(Nc2ncnc3cc4c(cc23)OCCOCCOCCO4)c1` [Icotinib] (top concentration 10000 nM), the “selective drug sensitivity score” value was 0.7.
For `CN[C@@H](C)C(=O)N[C@H]1CN(C(=O)CC(C)C)CC[C@H]2CC[C@@H](C(=O)NC(c3ccccc3)c3ccccc3)N2C1=O` [AT-406] (top concentration 10000 nM), the “selective drug sensitivity score” value is -1.26.
Take `CC(C)(O)CC(=O)NCCn1ccc2ncnc(Nc3ccc(Oc4cccc(C(F)(F)F)c4)c(Cl)c3)c21` [TAK-285] (top concentration 2500 nM): the “selective drug sensitivity score” value amounted to 0.
`COc1cc(C)[nH]c(=O)c1CNC(=O)c1c(C)n([C@H](C)C2CCOCC2)c2ccccc12` [CPI-360] (top concentration 10000 nM): the “selective drug sensitivity score” value was 0.
For the molecule `Cc1cc2c(C(=O)NC[C@H](C)c3ccccc3)c(O)c(O)cc2c(O)c1-c1c(C)cc2c(C(=O)NC[C@H](C)c3ccccc3)c(O)c(O)cc2c1O` [Sabutoclax] (top concentration 25000 nM), the “selective drug sensitivity score” value worked out at 12.2.
On to `CC(C)(C)C[C@@H]1N[C@@H](C(=O)N[C@H]2CC[C@H](O)CC2)[C@H](c2cccc(Cl)c2F)[C@]12C(=O)Nc1cc(Cl)ccc12` (top concentration 10000 nM), for which the “selective drug sensitivity score” value was -1.84.
Regarding `C[C@@H]1C[C@H]2[C@@H]3CCC4=CC(=O)C=C[C@]4(C)[C@@]3(F)[C@@H](O)C[C@]2(C)[C@@]1(O)C(=O)CO` [Dexamethasone] (top concentration 10000 nM), the “selective drug sensitivity score” value is 43.2.

In a further test the test system is ALL-SIL. Described as above. The settings on record: 72 h.
As to `Nc1nc2cc(-c3ccc4ncc(C(=O)N5CCOCC5)n4c3)ccc2o1` [Serabelisib] (top concentration 10000 nM), the “selective drug sensitivity score” value was determined as 0.36.
Turning to `COc1cccc(-c2ccc(NC(=O)C3=C(C(=O)O)CCC3)c(F)c2)c1` [Vidofludimus] (top concentration 10000 nM), the “selective drug sensitivity score” value is 3.2.
As for `Cc1cccc(-c2nn3c(c2-c2ccnc4ccc(C(N)=O)cc24)CCC3)n1` [Galunisertib] (top concentration 1000 nM), the “selective drug sensitivity score” value came to 0.
Take `COc1cc2c(N3CCN(C(=O)Nc4ccc(OC(C)C)cc4)CC3)ncnc2cc1OCCCN1CCCCC1` [Tandutinib] (top concentration 1000 nM): the “selective drug sensitivity score” value was 0.
Same read-out and setting: next, `Cc1c(F)cc(C(=O)NC2CC2)cc1-c1ccc(C(=O)NCC(C)(C)C)cn1` [Losmapimod] (top concentration 10000 nM): -0.18; `Nc1nc(N)c2nc(-c3cccc(O)c3)c(-c3cccc(O)c3)nc2n1` [TG100-115] (top concentration 10000 nM): 0.7.
Take `C[C@]12CC[C@@H]3c4ccc(O)cc4C[C@@H](CCCCCCCCC[S+]([O-])CCCC(F)(F)C(F)(F)F)[C@H]3[C@@H]1CC[C@@H]2O` (stereo not given in full) [Fulvestrant] (top concentration 1000 nM): the “selective drug sensitivity score” value came out at 5.3.
On the same count and under the same terms, then `O=C(Nc1cccnc1)N1CCC(Cc2cccc(Oc3ccc(C(F)(F)F)cn3)c2)CC1` [PF-3845] (top concentration 10000 nM), with -0.84.
On to `COc1cc2c(cc1OCCCN1CCCC1)N=C(N)C21CCC1` [A-366] (top concentration 25000 nM), for which the “selective drug sensitivity score” value is -0.34.

(Values after the supplement of paper PMC8967900.)
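Note: ALL cell lines in 384-well plates, five doses spanning 10,000-fold, each plate scaled between vehicle and 100 µmol/L benzalkonium chloride controls, sDSS an adapted area-under-curve metric.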
